In US20250099412A1, “METHOD OF INHIBITING DEGRADING PROTEASE ACTIVITY IN AGING” (The Regents of the University of California, priority 2022, published 2025):

Legend:
mucin = assay: Mucin-containing mucus layer of small intestine stained with alcian blue; type: in vivo, rat; details: old rats (100 weeks), two-week oral treatment; compared with old and young rats; FIG. 3B
From the text: (§1) Male Wistar rats (Harlan Sprague Dawley Inc., Indianapolis, IN) at maturity (4 months, 300 to 350 gm) and old age (24 months, 375 to 450 gm) were included in the study. The animals were maintained on standard laboratory chow (8604 Teklad rodent diet; Harlan Laboratories, Indianapolis, IN) without restriction and water ad libitum and maintained in separated room without pathogen-free conditions. […] A subgroup of old animals was given a serine protease inhibitor (tranexamic acid, 14 days) in drinking water (137 mM, exchanged daily) which at a minimum fluid consumption of 40 ml/day amounts to a minimum dose of 0.39 gm/kg/day for 350 gm body weight (BW). […]
Images of the immunolabel density were recorded at different magnifications, from relatively low power overviews of the tissue (10× objective, numerical aperture 0.25) to higher magnification of single cells (at 60× oil immersion objective, numerical aperture 1.4). The images were recorded under standard light conditions under fixed settings of the substage condenser with a digital camera (Spot Insight GIGABIT camera, Sterling Height), so that the camera serves as a quantitative light intensity meter. Images were analyzed on a laboratory computer to minimize operator error (NIH Image, 1.61, public domain software, spatial resolution of 640×480 pixel). […]

pancreatic trypsin = assay: Pancreatic trypsin immunohistochemistry on rat tissue sections (young, old, old-treated); type: in vivo; details: old rats (100 weeks), compared with old and young (16 weeks) rats
From the text: (§2) Male Wistar rats (Harlan Sprague Dawley Inc., Indianapolis, IN) at maturity (4 months, 300 to 350 gm) and old age (24 months, 375 to 450 gm) were included in the study. The animals were maintained on standard laboratory chow (8604 Teklad rodent diet; Harlan Laboratories, Indianapolis, IN) without restriction and water ad libitum and maintained in separated room without pathogen-free conditions. […] A subgroup of old animals was given a serine protease inhibitor (tranexamic acid, 14 days) in drinking water (137 mM, exchanged daily) which at a minimum fluid consumption of 40 ml/day amounts to a minimum dose of 0.39 gm/kg/day for 350 gm body weight (BW).
A femoral venous catheter was placed after general anesthesia (pentobarbital sodium, 50 mg/kg [Abbott Laboratories, North Chicago, IL], intramuscularly after local anesthesia with 2% lidocaine HCl [Hospira, Inc, Lake Forrest, IL]). […]
To determine on the tissue sections the immunolabel density and distribution of serine proteases, pancreatic trypsin MoAb (D-1): sc-137077 (Santa Cruz) primary antibody was used, followed by secondary antibodies (MP-7601 for anti-rabbit IgG; MP-7602 for anti-mouse IgG; ImmPRESS Excel staining kit peroxidase). […] No counterstain was applied to facilitate quantitative label intensity measurements and since cellular and vascular structures are readily identified. […] All procedures were carried out under standardized conditions to permit quantitative comparison of label densities.
Small intestine: Full thickness tissue blocks of the wall of proximal jejunum (3 by 5 mm) were fixed from all sides in 10% formaldehyde. Serine proteases were detected with primary and secondary antibodies labeled with DAB (Peroxidase Substrate Kit, ab64238, ABCAM).
Images of the immunolabel density were recorded at different magnifications, from relatively low power overviews of the tissue (10× objective, numerical aperture 0.25) to higher magnification of single cells (at 60× oil immersion objective, numerical aperture 1.4). […]

amylase = assay: Amylase staining of epithelial cells of the small intestine; type: in vivo, rat; details: old rats (100 weeks), oral treatment for two weeks; compared with old and young rats; FIG. 3B
From the text: as §2

collagen = assay: Collagen fragment labeling with biotin conjugated collagen hybridizing peptides (B-CHP); type: in vivo, rat; details: old rats (100 weeks), two-week oral treatment, compared with old and young (16 weeks) rats
From the text: as §1
Tissue sections were stained with B-CHP (stock solution, 150 mM; final applied solution 7.5. mM). […] The B-CHP label intensity on the sections was recorded by digital microscopy.
Images of the immunolabel density were recorded at different magnifications, from relatively low power overviews of the tissue (10× objective, numerical aperture 0.25) to higher magnification of single cells (at 60× oil immersion objective, numerical aperture 1.4). The images were recorded under standard light conditions under fixed settings of the substage condenser with a digital camera (Spot Insight GIGABIT camera, Sterling Height), so that the camera serves as a quantitative light intensity meter. […]

NC[C@H]1CC[C@H](C(=O)O)CC1 [tranexamic acid]
mucin label density in villi of small intestine (mucin): partially restored | pancreatic trypsin accumulation in cardiac muscle (pancreatic trypsin; two-week oral treatment (137 mM in drinking water), FIG. 1A): reduces pancreatic trypsin accumulation | pancreatic trypsin accumulation in brain (pancreatic trypsin; two-week oral treatment, FIG. 2A): reduces pancreatic trypsin accumulation | pancreatic trypsin accumulation in intestine (pancreatic trypsin; two-week oral treatment, FIG. 3A): reduces pancreatic trypsin accumulation in old rats (100 weeks) to similar levels seen in young rats | increase in amylase in the small intestine of old rats (amylase): attenuated | collagen fragmentation in cardiac muscle (collagen; FIG. 1B): reduces collagen fragmentation in cardiac muscle in old-treated rats below levels seen in old rats to levels similar to those seen in young rats | collagen fragmentation in brain (collagen; FIG. 2B): reduces collagen fragmentation in rat brain in old-treated rats below levels seen in old rats to levels similar to those seen in young rats
